Experimental findings from publication PMC12974487, “Inhibition of FicD-mediated AMPylation and deAMPylation by isoprenoid diphosphates” (Proceedings of the National Academy of Sciences of the …, 2026) are described below.

One experiment concerns the target T1, FicD^E234G, L258D (Homo sapiens, UniProt Q9BVA6, E234G/L258D).
T1 construct: Wild-type FicD (residues 105-458) and all mutants were expressed as N-terminal 6xHis-Sumo fusions; 6xHis-Sumo (N, cleaved yes); made in house; host or cells: Rosetta(DE3) E. coli
T1 sequence (Q9BVA6 105-458 E234G/L258D): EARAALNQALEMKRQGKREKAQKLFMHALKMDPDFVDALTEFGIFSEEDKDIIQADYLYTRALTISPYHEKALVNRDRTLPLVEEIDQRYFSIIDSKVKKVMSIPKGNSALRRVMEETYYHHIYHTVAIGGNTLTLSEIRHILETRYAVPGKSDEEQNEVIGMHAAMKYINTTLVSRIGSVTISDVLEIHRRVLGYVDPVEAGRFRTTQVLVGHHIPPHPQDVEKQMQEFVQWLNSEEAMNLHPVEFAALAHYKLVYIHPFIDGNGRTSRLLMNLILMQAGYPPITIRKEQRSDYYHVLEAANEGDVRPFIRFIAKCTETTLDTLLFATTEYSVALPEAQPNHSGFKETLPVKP
Description: DSF thermal shift with FicD^E234G, L258D. Type of experiment: binding.

The target in another experiment is T2, VopS (Vibrio parahaemolyticus serotype O3:K6, UniProt Q87P32).
T2 construct: made in house
T2 sequence (Q87P32 31-387): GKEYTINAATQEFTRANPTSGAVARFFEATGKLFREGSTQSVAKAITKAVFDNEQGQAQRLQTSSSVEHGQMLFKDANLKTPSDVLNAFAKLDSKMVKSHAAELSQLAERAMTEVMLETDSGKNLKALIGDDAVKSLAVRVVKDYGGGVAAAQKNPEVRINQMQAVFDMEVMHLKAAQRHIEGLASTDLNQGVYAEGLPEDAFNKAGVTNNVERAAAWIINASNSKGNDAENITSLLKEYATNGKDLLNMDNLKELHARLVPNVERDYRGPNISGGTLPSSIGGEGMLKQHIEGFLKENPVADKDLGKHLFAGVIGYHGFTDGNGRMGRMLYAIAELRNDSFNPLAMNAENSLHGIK
The experiment in a line: In vitro AMPylation of GST-CDC42 by VopS. Type of experiment: biochemical. An excerpt: Finally, we explored the inhibitory effects of GPP/FPP on other Fido proteins to see if these metabolites could serve as generic inhibitors of Fido domains. To test this specificity, we performed in vitro activity assays with GPP/FPP and two constitutively active Fido proteins from bacteria: VopS from Vibrio parahaemolyticus ([25]) and AvrB from Pseudomonas syringae ([30]). […]
visualization. Min-max scaled RFU values and the first derivatives are plotted as a function of temperature in Graphpad Prism 10.6.1. In Prism, the first derivative values are uniformly nudged by -1 to facilitate presenting RFU values and their first derivatives on the same graph.
To generate dose-response curves, ΔTm, was first calculated by subtracting the Tm of the ’no ligand’ control from the Tm of relevant ligand-containing reactions. ΔTm was then plotted as a function of ligand concentration. Dose-response curves were fit using GraphPad Prism 10.6.1 with the [Agonist] vs. Response – Variable Slope (four parameters) model. […]
Dialyzed proteins were then spun down at 21,000G for 15 minutes at 4C to remove trace insoluble material. The protein concentration was measured spectrophotometrically and then diluted to working concentration with 25mM HEPES pH 7.4/100mM KCl/10% glycerol. […] Integrated data was globally analyzed in SEDPHAT 15.b (12) using a model considering a single class of binding sites. […]

Entries after “also recorded” stand apart in the source; their conditions may differ.

In the case of `CC(C)=CCC/C(C)=C/CC/C(C)=C/COP(=O)(O)OP(=O)(O)O` [FPP, farnesyl-pyrophosphate], the “binding to FicD^E234G, L258D by DSF” value is reported as “bound” on FicD^E234G, L258D (absence of MgCl2) and “bound” on FicD^E234G, L258D (presence of 5 mM MgCl2). In addition, the “effect on AMPylation activity of VopS” value on VopS is listed as “Neither GPP nor FPP affected; also recorded: not inhibited”.
For `CC(C)=CCC/C(C)=C/COP(=O)(O)OP(=O)(O)O` [GPP, geranyl-pyrophosphate], the “effect on AMPylation activity of VopS” value on VopS is recorded as “Neither GPP nor FPP affected”.
